ChEMBL document CHEMBL1154559, “New bisindole alkaloids of the topsentin and hamacanthin classes from the Mediterranean marine sponge Rhaphisia lacazei” (J Nat Prod, 2000)
≈ marks a conversion by molar mass, not a printed value.

Test: Cytotoxicity against human NSCLC-N6 cells by colorimetric assay
Type: functional, cell-based

With O=C(c1nc(-c2c[nH]c3cc(Br)ccc23)c[nH]1)c1c[nH]c2cc(O)ccc12 [BROMOTOPSENTIN] the IC50 was 6.3 µg/mL (≈ 15 µM).
Compound O=C(c1nc(-c2c[nH]c3ccccc23)c[nH]1)c1c[nH]c2cc(O)ccc12 [TOPSENTIN] has an IC50 of 12 µg/mL (≈ 35.1 µM).
